# Measurements published in PMC9130233, “An inhibitor of RORγ for chronic pulmonary obstructive disease treatment” (Scientific Reports, 2022).
# “And” between values parts separate entries of the source, which are not always exact repeats. Equal entries are not always repeated.
# Columns and labels:
# mouse RORγ = test system: T1, mouse RORγ; test: Dissociation assay, jump dilution method (TR-FRET), mouse; assay type: binding
# T1 construct: RORγt-LBD region 264-516aa; made in house
# Description: To understand the inverse agonist behavior at the molecular level, interaction with the nuclear receptor RORγ was analyzed in binding assays by estimating its dissociation constant (Koff) and half-life (t1/2). The binding of a ligand stabilizes the conformation of the LBD while binding of a cofactor modifies receptor activity. Binding reversibility was evaluated by adding an excess of competing ligand in the FRET assay and evaluating the displacement of the tracer with inhibitor. Binding of the PCCR-1 with the LBD caused reduction in FRET on antibody addition forming a GST (Glutathione S-transferases) tagged RORγ-antibody complex. The dissociation assay was performed using the jump dilution method with PCCR-1 at a concentration showing maximum binding potency or IC90. The dissociation was tested on addition of an excess of a competitive ligand, the tracer.
# LXRβ = test system: T2, LXRβ; test: TR-FRET selectivity binding assay, LXRβ
# T2 construct: purchased Invitrogen
# Text: (§1) Based on the homology of the ligand binding domains, 3 different isoforms of ROR (hRORα, hRORβ and hRORγ) are reported. Small variations in the LBD regions possibly lead to differences in competitive binding between the nuclear receptors of the ROR isoforms (Fig. 1b). Similar to the assessment of RORγ binding assay, TR-FRET binding assays were also used to assess the affinity of PCCR-1 for other ROR isoforms. […] This was reconfirmed in cellular functional assays for the selected isoforms and nuclear receptors using Gal4 DBD with luciferase reporter system from Indigo (PA, USA). […] In addition, both cellular agonist and antagonist effects as well as for enzyme activity were evaluated with a known reference compound for each target, using a radiolabeled method (Eurofins Cerep, France, Table 1).
# (§2) For selectivity, the ROR isoforms RORα, FXR, LXRα, LXRβ, RXR, RARα were incubated with compound for 60 min at 22 °C followed by detection mix containing respective agonist (All trans retinoic acid for RARα, T0901317 for LXRα, LXRβ, 9-cis Retinoic acid for RXR, GW-4064 for FXR) and coactivator peptide (FD22 for RORα, PGC1α for RXR, RARα, TRAP220 for LXRα, LXRβ, SRC2-2 for FXR) and Tb-anti GST antibody prepared in assay buffer were added into a 384-well white plate. Reading taken after overnight incubation and the data analysis done as per the protocol mentioned in RORγt-LBD and co-activator ligand binding assay.
# [1] = molecular target: non RORγ isoforms and other major nuclear receptors; test: TR-FRET binding assays, other ROR isoforms and major nuclear receptors (summary)
# Text: as §1
# as §2, with “Reading taken after overnight incubation and the data analysis done as per the protocol mentioned in RORγt-LBD and co-activator ligand binding assay.” left out
# [2] = test system: Nuclear receptors (RORα, RARα, LXRα, LXRβ, RXR, FXR); test: Cerep panel, nuclear receptors: binding assays; parameters: key: NSE No significant effect; V wk very weak (very low-level agonist activity seen with mPPARγ); conditions: at 10 µM
# Text: as §1
# mPPARγ = test: Nuclear receptors: functional assay, mPPARγ agonism; assay type: cell-based, mouse; parameters: key: NSE No significant effect; V wk very weak (very low-level agonist activity seen with mPPARγ); conditions: nuclear receptors: functional assays
# Text: as §1
# Alpha 1A = molecular target: T3, Alpha 1A (Homo sapiens, UniProt P35348); test: Cerep panel, Alpha 1A (antagonist); assay type: cell-based; conditions: read-out: IC50 Alpha 1A (antg)
# T3 construct: Eurofins Cerep
# T3 sequence (P35348 whole entry): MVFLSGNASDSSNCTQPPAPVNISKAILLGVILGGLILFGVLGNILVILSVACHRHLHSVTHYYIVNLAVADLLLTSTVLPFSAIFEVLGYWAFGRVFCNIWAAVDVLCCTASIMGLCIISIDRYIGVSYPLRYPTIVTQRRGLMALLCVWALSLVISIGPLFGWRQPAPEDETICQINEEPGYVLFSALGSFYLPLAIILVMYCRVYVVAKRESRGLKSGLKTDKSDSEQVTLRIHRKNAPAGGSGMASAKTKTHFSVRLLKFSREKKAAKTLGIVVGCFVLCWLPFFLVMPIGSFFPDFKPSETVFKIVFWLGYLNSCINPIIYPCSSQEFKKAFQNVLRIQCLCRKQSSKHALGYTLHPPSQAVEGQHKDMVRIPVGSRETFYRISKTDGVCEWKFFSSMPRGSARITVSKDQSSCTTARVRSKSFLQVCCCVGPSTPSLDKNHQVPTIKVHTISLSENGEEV
# Text: as §1
# hERG = hERG (Homo sapiens, UniProt Q12809); test: hERG; conditions: rated moderate
# Sequence of hERG (Q12809 whole entry): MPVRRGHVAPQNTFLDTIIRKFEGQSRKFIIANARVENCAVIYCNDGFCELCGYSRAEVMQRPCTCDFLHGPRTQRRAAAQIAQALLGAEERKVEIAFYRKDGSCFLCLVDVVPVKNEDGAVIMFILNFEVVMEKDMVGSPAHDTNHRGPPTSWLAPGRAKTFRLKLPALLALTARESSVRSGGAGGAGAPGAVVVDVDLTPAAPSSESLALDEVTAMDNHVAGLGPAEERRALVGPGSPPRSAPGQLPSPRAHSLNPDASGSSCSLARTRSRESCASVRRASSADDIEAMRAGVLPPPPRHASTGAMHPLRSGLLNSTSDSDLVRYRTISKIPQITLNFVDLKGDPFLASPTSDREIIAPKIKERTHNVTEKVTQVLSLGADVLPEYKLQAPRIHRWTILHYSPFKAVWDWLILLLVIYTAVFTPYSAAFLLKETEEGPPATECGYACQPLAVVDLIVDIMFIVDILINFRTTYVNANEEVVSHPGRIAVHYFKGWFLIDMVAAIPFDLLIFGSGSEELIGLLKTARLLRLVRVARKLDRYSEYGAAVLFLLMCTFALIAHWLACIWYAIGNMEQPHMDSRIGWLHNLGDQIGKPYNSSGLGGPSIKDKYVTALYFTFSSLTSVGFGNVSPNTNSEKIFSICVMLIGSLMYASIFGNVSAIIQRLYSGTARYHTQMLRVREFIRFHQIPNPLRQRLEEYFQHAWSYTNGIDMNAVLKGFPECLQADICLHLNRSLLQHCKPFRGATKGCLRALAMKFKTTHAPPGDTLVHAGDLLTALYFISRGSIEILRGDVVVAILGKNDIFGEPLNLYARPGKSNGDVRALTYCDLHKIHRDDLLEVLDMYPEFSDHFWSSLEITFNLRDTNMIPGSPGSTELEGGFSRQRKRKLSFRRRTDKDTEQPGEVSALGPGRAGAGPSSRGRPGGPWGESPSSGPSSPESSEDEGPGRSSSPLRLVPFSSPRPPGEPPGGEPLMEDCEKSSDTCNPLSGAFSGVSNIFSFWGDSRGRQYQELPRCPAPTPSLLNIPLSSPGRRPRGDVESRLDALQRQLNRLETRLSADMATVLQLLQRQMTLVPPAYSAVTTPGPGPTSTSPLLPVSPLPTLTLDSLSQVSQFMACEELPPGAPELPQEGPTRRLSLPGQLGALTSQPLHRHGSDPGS
# IL-22 in hPBMCs = test: IL-22 release, human PBMC, TCR activating conditions; assay type: cell-based; conditions: read-out: hIL-22 IC50
# Description: (§3) An increase in the levels of Th17 dependent cytokine in the peripheral blood of COPD patients as compared to the Th1 and Th2 dependent cytokines has been well documented in a subset of COPD patients. A comparative study was performed under TCR activating conditions to evaluate the potencies of PCCR-1 for inhibition across Th1, Th2 and Th17 dependent cytokines using hPBMCs.
# (§4) Human whole blood from healthy subjects were procured from Clinical Research Unit, Sanpada. Clinical Research Center Glenmark (Plot No. D, 508, Turbhe, TTC Industrial Area, MIDC, Sanpada, Navi Mumbai, Maharashtra 400705, India). PBMCs were isolated using heparinized blood with Ficoll Histopaque. Briefly, the cells were seeded in 96-well plate pre-coated with human anti-CD3 mAb (10 µg/mL), post 30 min of compound treatment cells were stimulated with human anti-CD28 mAb (2 µg/mL). After 72 h of culture, the supernatant was collected for Th1/Th2 cytokines; IFN-γ, IL-2, IL-4 and IL-10 and measured by ELISA. For Th17 polarization assay, the following cytokine cocktail was used: IL-1β (10 ng/ml), IL-23(10 ng/ml), IL-6 (50 ng/ml), TGF-β1 (3 ng/ml), IL-2 (20U/ml) and supernatants were used for measuring IL-17 and IL-22 by ELISA.
# [3] = test system: Th1 (IL-2 and IFN-γ) and Th2 (IL-4, IL-13 and IL-10) dependent cytokines in hPBMCs; test: Th1 and Th2 cytokine release, human PBMC, TCR activating conditions; assay type: cell-based; conditions: hPBMC, even at 10 µM
# Description: as §3, §4
# [4] = test system: IL-17 release from COPD lung BALf cells; test: IL-17 release, BALf cells from COPD patients; assay type: cell-based; conditions: Homo sapiens; TCR stimulated, n = 10; read-out: IL-17 IC50, COPD patient's sample: BAL
# Description: Whole blood and BAL samples from COPD patients were obtained from Multispecialty hospital, Mumbai post approval from ethics committee and informed consent of patients. 30–40 mL Broncho alveolar lavage (BALf) was collected per patient and stored in ice. Blood was collected in heparin vaccutainer as per approved protocol. Both the samples were processed within 2 h of collection. BALF was passed through 100-µm and 40-µm cell strainer to remove debris and mucus, the samples were centrifuged and the cells were re-suspended in RPMI 1640 complete medium. PBMCs from blood were isolated using Histopaque-1077 by density gradient centrifugation. Isolated BAL cells and PBMCs were seeded in 96 well coated with 10 µg/ml anti-CD3 and 2 µg/ml anti-CD2. Cells were further treated with different concentration of test compound for 60 min followed by stimulation with 20 µg/ml anti-CD28 and incubated for 48–72 h. The supernatant was used for estimating IL-17 by ELISA.
smiles,measurement,setting,value
CCn1c(C(C)(C)Oc2ccc(F)cc2F)nc2cc(NC(=O)Cc3ccc(S(=O)(=O)CC)cc3)ccc21 [PCCR-1],dissociation from the target protein,"mouse RORγ; mouse RORγ, jump dilution",20–25%
same,t1/2 (target residence time),"mouse RORγ; mouse RORγ, jump dilution, PCCR-1 at IC90",4.69 h
same,absolute dissociation,"mouse RORγ; mouse, till 3 h of measurement",50%
same,% Inhibition LXRβ,LXRβ; 1 µM,28.11%
same,% Inhibition LXRβ,LXRβ; 10 µM,46.66%
same,"Fold over hRORγ, LXRβ",LXRβ; vs RORg IC50 31.87 nM,> 313.7 fold
same,IC50,"[1]; TR-FRET, read-out: IC50 for the rest of the non RORγ isoforms and other major nuclear receptors",> 10000 nM
same,fold selectivity over other ROR isoforms / nuclear receptors,[1]; relative to RORγ,> 313.7 fold and > 300 fold
same,"Nuclear receptors: binding assays (RORα, RARα, LXRα, LXRβ, RXR, FXR)",[2],NSE at 10 µM
same,mPPARγ(agonism),mPPARγ,V wk
same,IC50,Alpha 1A,190 nM
same,IC50,hERG,6000 nM
same,IC50,IL-22 in hPBMCs,297 nM
same,"inhibition of Th1 (IL-2 and IFN-γ) and Th2 (IL-4, IL-13 and IL-10) dependent cytokines",[3],did not show significant inhibition
same,IC50,[4],522 nM
